Measured values taken from patent publication US6410546B1, “Use of MKC-442 in combination with other antiviral agents” (Triangle Pharmaceuticals, Inc., priority 1997, dated 2002).

How the values were obtained:
[1] = test system: wild-type (drug-sensitive) and several mutant strains of HIV; test: Cell culture assay systems, inhibition of HIV replication (alone and in drug combinations); assay type: cell-based
From the text: MKC-442, although a nucleoside analogue, functions as a non-nucleoside reverse transcriptase inhibitor. It is considered an allosteric inhibitor because it appears to exert its activity by binding to an “allosteric position”, i.e., one other than the binding site, of the enzyme.

[2] = Phase I study, single escalating doses: pharmacokinetics and tolerance; assay type: in vivo, HIV-infected volunteers
From the text: A Phase I study evaluated the pharmacokinetics and tolerance of single escalating doses of MKC-442 in HIV-infected volunteers.

HIV [3] = test: Phase I/II double-blind, placebo controlled trial of repeated multiple oral doses
Description: Preliminary data from a Phase I/II double-blind, placebo controlled trial designed to evaluate the safety and efficacy of repeated multiple oral doses of MKC-442 in HIV-infected patients has now also been evaluated. A total of 49 patients were treated with MKC-442 for up to two months. Doses ranging from 100 mg to 1000 mg twice a day were given to groups of six to eight patients at each dosage level.

in vivo = test: in vivo; design: species or system rats; conditions: rat
From the text: In rats, for example, the concentration of MKC-442 in the brain was 100% of that seen in the plasma.

HIV [4] = conditions: as reported in the prior art; cited from earlier work

| SMILES | combination effect on HIV replication ([1]; three drug combination with AZT and saquinavir) | combination effect on HIV replication ([1]; two drug combination with AZT) | combination effect on HIV replication ([1]; two drug combination with DDI) | potency compared with nevirapine ([1]; wild-type and mutant strains of HIV) | ability to inhibit HIV replication ([1]; wild-type and mutant strains resistant to established non-nucleoside reverse transcriptase inhibitors) | concentrations of the drug in the plasma ([2]; groups receiving higher doses, compared with levels required to suppress 90% of the virus in culture) | tolerance ([2]; single escalating doses, HIV-infected volunteers) | viral load reduction (average) (HIV [3]; 705 mg and 1000 mg twice a day, all patients, after one week) | tolerability (HIV [3]; over 308 patient-weeks of drug exposure, 100 mg to 1000 mg twice a day) | Kp (in vivo) | penetration into the central nervous system (in vivo) | oral bioavailability (in vivo; po) | activity against HIV (HIV [4]) | toxicity (HIV [4]) |
| --- | --- | --- | --- | --- | --- | --- | --- | --- | --- | --- | --- | --- | --- | --- |
| CCOCn1c(Cc2ccccc2)c(C(C)C)c(=O)[nH]c1=O [MKC-442, 6-benzyl-1-(ethoxymethyl)-5-isopropyluracil] | synergistic inhibition | synergistic inhibition | synergistic inhibition | greater potency than nevirapine | retained much of its ability to inhibit HIV replication | mich higher than the levels required to suppress 90% of the virus in culture | generally well tolerated | 96% | well tolerated | 1 | excellent | good |  |  |
| Nc1ccn(C2CSC(CO)O2)c(=O)n1 (racemic) [BCH-189, 2-hydroxymethyl-5-(cytosin-1-yl)-1,3-oxathiolane] |  |  |  |  |  |  |  |  |  |  |  |  | approximately the same activity against HIV as AZT | little toxicity |
| Nc1nc(=O)n([C@@H]2CS[C@H](CO)O2)cc1F (relative stereo) [FTC, cis-2-hydroxymethyl-5-(5-fluorocytosin-1-yl)-1,3-oxathiolane] |  |  |  |  |  |  |  |  |  |  |  |  | potent HIV activity |  |
